Values quoted from earlier work, collected in patent publication US20080318986A1, “Ddc Compositions” (priority 2005, published 2008).

System: adenoviral strains
Details: literature study; for inhibition of adenoviral strains: Kaneko et al. J. Jpn. Opthalmol. Soc. 107:196-201 (2003)

| SMILES | inhibition of adenoviral strains | EC50 values against adenoviral strains (rank among NMSO3, HPMPC, dDC) (Kaneko et al. 2003, comparison in words only) |
| --- | --- | --- |
| Nc1ccn(C[C@@H](CO)OCP(=O)(O)O)c(=O)n1 [HPMPC] | inhibited adenoviral strains |  |
| CCCCCCCCCCCCCCCCCCCCCCOCC(C)(COCCCCCCCCCCCCCCCCCCCCCC)CO[C@]1(C(=O)O)C[C@H](OS(=O)(=O)O)[C@@H](NC(C)=O)[C@H]([C@H](OS(=O)(=O)O)[C@@H](COS(=O)(=O)O)OS(=O)(=O)O)O1 [NMSO3] | inhibited adenoviral strains | lowest EC50 values |
| Nc1ccn([C@H]2CC[C@@H](CO)O2)c(=O)n1 [dDC, 2′,3′-Dideoxycytidine] | inhibited adenoviral strains |  |
